{"source": "patent US20040223963A1", "about": "“Method for treating ischemic stroke with melatonin” (priority 2003, published 2004)", "key": {"[1]": {"tested_on": "women", "details": "oral, about 300 mg daily for about 4 months; cited from earlier work"}, "[2]": {"tested_on": "adult Sprague-Dawley rats", "assay": "endovascular middle cerebral artery occlusion (MCAO) stroke models, permanent and 3-hour", "assay_type": "in vivo, rat", "text": "The laboratory observations in support of the disclosed invention include experiments with rats. In experimental studies, the control groups of animal received identical handling plus an intraperitoneal injection of the vehicle alone (i.e. without melatonin)."}, "[3]": {"tested_on": "ischemic stroke", "details": "cited from earlier work"}, "[4]": {"details": "second and third doses added at 24 and 48 hours of ischemia"}, "[5]": {"details": "clinical trials on neuroprotection against ischemic stroke"}}, "note": "“Also recorded” adds a separate entry of the source. Like-named read-outs stand apart in the source and are kept apart here.", "data": [{"compound": "COc1ccc2[nH]cc(CCNC(C)=O)c2c1", "note": "[melatonin]", "values": [{"measurement": "effect on ovulation", "setting": "[1]", "result": "inhibit ovulation"}, {"measurement": "side effects", "setting": "[1]", "result": "without significant side effects"}, {"measurement": "efficacy at high dose", "setting": "[2]; 50 mg/kg", "result": "effective"}, {"measurement": "harmful effects", "setting": "[2]; doses up to about 50 mg/kg", "result": "can be administered safely; also recorded: no evidence of producing any harmful effects"}, {"measurement": "reduction of infarct volume", "setting": "[2]; pre-treatment, single i.p. injection, about 5 to about 15 mg/kg, at about 72 hours, permanent and 3-hour MCAO", "result": "about 40%"}, {"measurement": "effect on systemic hemodynamic parameters and regional cerebral blood flow", "setting": "[2]; pre-treatment, single i.p. injection, about 5 to about 15 mg/kg, permanent and 3-hour MCAO", "result": "without affecting"}, {"measurement": "infarct volume with additional doses", "setting": "[2]; [4]", "result": "tended to achieve increased reduction in infarct volume"}, {"measurement": "treatment time window", "setting": "[2]; [4]", "result": "failed to extend the treatment time window beyond about 3 hours"}, {"measurement": "efficacy of treatment after onset of ischemia", "setting": "[2]; single injection about 5 mg/kg commenced at 1 hour or less after onset of ischemia, 3-hour MCAO", "result": "effective"}]}, {"compound": "O=C1NC(c2ccccc2)(c2ccccc2)C(=O)N1COP(=O)(O)O", "note": "[Fosphenytoin]", "values": [{"measurement": "Results (efficacy)", "setting": "[3]; [5]", "result": "No efficacy"}]}, {"compound": "NS(=O)(=O)c1cccc2c1c([N+](=O)[O-])cc1nc(O)c(O)nc12", "note": "[NBQX]", "values": [{"measurement": "Results (adverse effects)", "setting": "[3]; in vivo", "result": "Trial stopped, adverse effects"}]}, {"compound": "CN1CC[C@@]23CCCC[C@@H]2[C@@H]1Cc1ccc(O)cc13", "note": "[Dextrorfan]", "values": [{"measurement": "Results (adverse effects)", "setting": "[3]; [5]", "result": "Trial stopped, adverse effects"}]}, {"compound": "Fc1ccc(C(c2ccc(F)cc2)N2CCN(C/C=C/c3ccccc3)CC2)cc1", "note": "[Flunarizine]", "values": [{"measurement": "Results (efficacy)", "setting": "[3]; [5]", "result": "No efficacy"}]}, {"compound": "NC(=O)CN1CCCC1=O", "note": "[Piracetam]", "values": [{"measurement": "Results (efficacy)", "setting": "[3]; [5]", "result": "No overall efficacy,"}]}, {"compound": "CN(c1nc2ccccc2s1)C1CCN(C[C@H](O)COc2ccc(F)c(F)c2)CC1", "note": "[Lubeluzole]", "values": [{"measurement": "Results (efficacy)", "setting": "[3]; [5]", "result": "No efficacy"}]}, {"compound": "C=C1CC[C@@]2(O)[C@H]3Cc4ccc(O)c5c4[C@@]2(CCN3CC2CC2)[C@H]1O5", "note": "[Nalmefene]", "values": [{"measurement": "Results (efficacy)", "setting": "[3]; [5]", "result": "No efficacy"}]}, {"compound": "COC(=O)C1=C(C)NC(C)=C(C(=O)OC(C)C)C1c1cccc2nonc12", "note": "(centres unmarked) [Isradipine]", "values": [{"measurement": "Results (efficacy)", "setting": "[3]; [5]", "result": "No efficacy"}]}, {"compound": "O=C(/C=C/c1c(C(=O)O)[nH]c2cc(Cl)cc(Cl)c12)Nc1ccccc1", "note": "[GV150526]", "values": [{"measurement": "Results (efficacy)", "setting": "[3]; [5]", "result": "No efficacy"}]}, {"compound": "CCc1cccc(N(C)C(N)=Nc2cccc3ccccc23)c1", "note": "[Aptiganel]", "values": [{"measurement": "Results (adverse effects)", "setting": "[3]; [5]", "result": "Trial stopped, adverse effects"}]}, {"compound": "C[C@]12N[C@H](Cc3ccccc31)c1ccccc12", "note": "[Dizolcipine]", "values": [{"measurement": "Results (adverse effects)", "setting": "[3]; [5]", "result": "Trial stopped, adverse effects"}]}, {"compound": "OC(CN1CCC(Cc2ccc(F)cc2)CC1)c1ccc(Cl)cc1", "note": "(centres unmarked) [Eliprodil]", "values": [{"measurement": "Results (efficacy)", "setting": "[3]; [5]", "result": "No efficacy"}]}, {"compound": "bFGF: Neurotrophic factor", "values": [{"measurement": "Results (adverse effects)", "setting": "[3]; in vivo", "result": "Trial stopped, adverse effects"}]}, {"compound": "O=C(O)[C@@H]1C[C@H](CP(=O)(O)O)CCN1", "note": "(racemic) [Selfotel]", "values": [{"measurement": "Results (adverse effects)", "setting": "[3]; [5]", "result": "Trial stopped, adverse effects"}]}, {"compound": "COc1ccc(Cl)cc1[C@]1(F)C(=O)Nc2cc(C(F)(F)F)ccc21", "note": "[BMS-204352]", "values": [{"measurement": "Results (efficacy)", "setting": "[3]; [5]", "result": "No efficacy"}]}, {"compound": "CCCn1cnc2c1c(=O)n(CCCCC(C)=O)c(=O)n2C", "note": "[Propentophylline]", "values": [{"measurement": "Results (adverse effects)", "setting": "[3]; [5]", "result": "Trial stopped, adverse effects"}]}, {"compound": "C[C@@H]1C[C@H]2[C@@H]3CCC4=CC(=O)C=C[C@]4(C)C3=CC[C@]2(C)[C@H]1C(=O)CN1CCN(c2cc(N3CCCC3)nc(N3CCCC3)n2)CC1", "note": "[Tirilazad]", "values": [{"measurement": "Results (efficacy)", "setting": "[3]; [5]", "result": "No efficacy"}]}]}
